Laboratory results from US20240245804A1 (priority 2021, published 2024).
Entries after “also recorded” stand apart in the source; their conditions may differ.

B1: CdaA: c-di-AMP cyclase from Listeria monocytogenes, wild type, expressed from plasmid in HEK 293T cells (protein, UniProt Q45589 1-273, looked up)
Cyclic di-AMP synthase CdaA: MAFEDIPFLQYLGNAVDILLVWYVIYKLIMVIRGTKAVQLLKGIVVIVLVRMASQYLGLSTLQWLMDQAITWGFLAIIIIFQPELRRALEQLGRGRFFSRSGTPVEEAQQKTIEAITKAINYMAKRRIGALLTIERDTGMGDYIETGIPLNAKVSSELLINIFIPNTPLHDGAVIMKNNEIAAAACYLPLSESPFISKELGTRHRAAVGISEVTDSLTIIVSEETGGVSVAKNGDLHRELTEEALKEMLEAEFKKNTRDTSSNRWYWRGKKNG

What was measured:
STING [1] = assay type: cell-based, mouse
STING [2] = assay type: cell-based, mouse; remark: listed apart in the source
STING [3] = assay type: cell-based, mouse; remark: listed apart in the source
STING [4] = assay type: cell-based, mouse; remark: listed apart in the source
[5] = tested on: THP1-Blue-ISG reporter cells; assay type: cell-based

Row | Molecule | STING agonism evidenced by induction of a variety of inflammatory genes (STING [1]) | induction of IFNß (STING [2]) | STING agonism / activation of the pathway (STING [3]) | induction of nitrite (STING [4]) | SEAP activity (activation of interferon signaling) [5]
1 | Nc1nc2c(ncn2[C@@H]2O[C@@H]3COP(=O)(O)O[C@H]4[C@@H](O)[C@H](n5cnc6c(N)ncnc65)O[C@@H]4COP(=O)(O)O[C@@H]2[C@@H]3O)c(=O)[nH]1 [cGAMP, 2′3′-cGAMP] | agonists of STING | – | – | – | –
2 | Nc1ncnc2c1ncn2[C@@H]1O[C@@H]2COP(=O)(O)O[C@H]3[C@@H](O)[C@H](n4cnc5c(N)ncnc54)O[C@@H]3COP(=O)(O)O[C@H]2[C@H]1O [c-di-AMP] | agonists of STING; also recorded: stronger activation | more potent induction | agonists of STING; also recorded: stronger activation | more potent induction | –
3 | B1 | – | – | – | – | displayed activity
